Measurements reported in patent US10668125B2, “Peptide having highly-shifted accumulation to pancreatic cancer cells and tissues, and use of said peptide” (Niigata University, priority 2015, dated 2020).
Where no end group is shown, it is not given here.

Columns and labels:
[1] = system: KYN-2 cells and normal cells originating from various tissues; experiment: Test Example 1: accumulation of peptide to other cancer cells and normal cells (fluorescence microscope); format: cell-based, human; settings: FITC-labeled peptide 2 μM, 2 hours at 37° C., FIG. 1
Experimental: (§1) These were maintained by subculture in the laboratory by the inventors.
(§2) Pancreatic cancer cells and HPNE cells were cultured using a 5% FBS-containing CS-C medium kit. KYN-2 cells, HaCaT cells, NHDF cells, MMNK-1 cells, and Liver cells were cultured using 10% FBS-containing RPMI1640 medium. Kidney cells were cultured using a proliferation medium for normal human renal epithelial cells (RenaLife Comp Kit). NuLi-1 cells were cultured using BEGM medium (Bronchial Epithelial Growth Medium, Serum-free). TIME cells were cultured using EBM-2-MV Bullet kit (Endothelial Cell Basal Medium-2 Bullet kit).
(§3) Those cells were cultured for 2 hours at 37° C. Subsequently, the cells were washed three times with the medium in order to remove the peptide-containing medium. Subsequently, the uptake of the various peptides in the living cells was visually evaluated using an inverted type fluorescence microscope. Prior to the microscopic examination, the culture supernatant containing the peptides were removed, the cells were washed three times with 1×PBS (−), and then the cells were treated with trypsin. Adherent cells were detached and were immediately transferred into a fresh 96-well plate. The cells were resuspended in a fresh culture fluid, and then a microscopic examination was performed.

PK-8 cells = experiment: Test Example 2: accumulation of peptide in tissues of mouse intraperitoneally transplanted with PK-8 cells; format: in vivo; settings: NOD-SCID mice with PK-8 cells, i.v. 300 μg per 20 g body weight, 30 minutes after administration, FIG. 3B
Experimental: (§4) NOD-SCID mice (six-week-old female mice purchased from Crea-Japan, Inc.) intraperitoneally transplanted with Panc1 cells or PK-8 cells, which are human pancreatic cancer cells, in an amount of 1×10^6 cells in each animal, were produced as human pancreatic cancer cell-transplanted mice. Thirty days after the transplantation of human pancreatic cancer cells, Peptide 1 produced in Example 1 was intravenously (i.v.) injected to the mice in an amount of 300 μg with respect to 20 g of the mouse body weight. […] In FIG. 3A and FIG. 3B, the “Bright Field” refers to images taken in the bright field, and “FITC” refers to images taken in the dark field under the conditions of green fluorescence excitation at a wavelength of 488 nm.

[2] = system: various pancreatic cancer cells (BxPC3, PK-8, PL45, AsPC1, Panc1); experiment: Test Example 1: accumulation of peptide to pancreatic cancer cells (fluorescence microscope); format: cell-based, human; settings: FITC-labeled peptide 2 μM, 2 hours at 37° C., FIG. 1
Experimental: as §1, §2, §3

BxPC3 cells [3] = experiment: Test Example 1: quantitative fluorescence in BxPC3 cells relative to HPNE cells; format: cell-based, human; settings: absorption into normal pancreatic duct epithelial cells (HPNE) designated as 1.0, 2 μM, 2 hours, FIG. 2B
Experimental: as §3
The graph of FIG. 2A is a graph showing the proportions of fluorescence intensities detected in various cells, the proportions being obtained by quantitatively analyzing the fluorescence detected in the various cells to which various peptides were added in Test Example 1, and determining relative values by designating the fluorescence detected in HPNE cells, which are a human immortalized normal pancreatic duct epithelial cell line, as 1.0. […]

Panc1 cells = experiment: Test Example 2: accumulation of peptide in tissues of mouse intraperitoneally transplanted with Panc1 cells; format: in vivo; settings: NOD-SCID mice with Panc1 cells, i.v. 300 μg per 20 g body weight, 30 minutes after administration, FIG. 3A
Experimental: as §4

BxPC3 cells [4] = experiment: Test Example 3: accumulation of peptide in tissues of mouse with BxPC3 cells transplanted into the pancreas; format: in vivo
Experimental: NOD-SCID mice (six-week-old female mice purchased from Crea-Japan, Inc.) having BxPC3 cells, which are human pancreatic cancer cells, transplanted into the pancreas in an amount of 1×10^6 cells in each animal, were produced as human pancreatic cancer cell-transplanted mice. Thirty days after the transplantation of human pancreatic cancer cells, Peptide 4 produced in Example 1 was intravenously (i.v.) injected to the mice in an amount of 150 μg with respect to 20 g of the mouse body weight. […] In FIG. 4, the “Bright Field” refers to images taken in the bright field, and “FITC” refers to images taken in the dark field under the conditions of green fluorescence excitation at a wavelength of 488 nm. Furthermore, in FIG. 4, “brain” means the brain, “heart” means the heart, “kidney” means the kidney, “liver” means the liver, “lung” means the lung, “muscle” means the skeletal muscle, “pancreas” means the pancreas, “spleen” means the spleen, and “tumor” means a malignant tumor. “Surface” means the surface of various organs, and “transection” means a transverse section of various organs.
FIG. 5 is a graph showing the proportions of the fluorescence intensities detected in various tissues, the proportions being obtained by designating the fluorescence detected in normal pancreas as 1.0.

Sequence	fluorescence detected in KYN-2 cells and normal cells originating from various tissues [1]	fluorescence of FITC in tumor lesions and normal organs (PK-8 cells)	fluorescence detected in the various pancreatic cancer cells [2]	absorption ratio (S/N ratio) into BxPC3 cells (BxPC3 cells [3])	fluorescence of FITC in tumor lesions and normal organs (Panc1 cells)	fluorescence of FITC in tumor lesions and normal organs (BxPC3 cells [4]; NOD-SCID mice with BxPC3 cells in pancreas, i.v. 150 μg per 20 g body weight, 30 minutes after administration, FIG. 4)	S/N ratio in the target malignant tumor (BxPC3 cells [4]; absorption into normal pancreas designated as 1.0, i.v. 150 μg per 20 g, 30 minutes, FIG. 5)	S/N ratio in the kidneys (BxPC3 cells [4]; absorption into normal pancreas designated as 1.0, i.v. 150 μg per 20 g, 30 minutes, FIG. 5, ascribed to urinary excretion, not cell uptake)
GYRRTTPSYWRMWLR (also: FITC label, site not given here) [Peptide 1, IVV library-derived 15-amino acid residue peptide, synthesized FITC-labeled]	fluorescence was hardly detected	strong fluorescence of FITC was detected in the tumor and the metastatic lesions	strong fluorescence was detected	about 6 times	strong fluorescence of FITC was detected in the tumor and the metastatic lesions			
RRPTTWHKP (also: FITC label, site not given here) [Peptide 4, IVV library-derived 9-amino acid residue peptide, synthesized FITC-labeled]	fluorescence was hardly detected		strong fluorescence was detected			strong fluorescence of FITC was detected in the tumor and the kidneys	about 9 times	about 11 times
ARRYTWIRA (also: FITC label, site not given here) [Peptide 2, IVV library-derived 9-amino acid residue peptide, synthesized FITC-labeled]	fluorescence was hardly detected		strong fluorescence was detected	about 6 times				
RAWRQCRWR (also: FITC label, site not given here) [Peptide 3, IVV library-derived 9-amino acid residue peptide, synthesized FITC-labeled]	fluorescence was hardly detected		strong fluorescence was detected					
